# Type: in vivo
# Conditions: four mice, IP at 0, 2, 4 and 6 hr, 500 μl of 0.1% and 0.01%, observed over 24 hours
# Procedure: Four mice were injected IP at 0, 2, 4 and 6 hr with 500 μl volumes of n-decyl aldehyde at concentrations of 0.1% and 0.01%. Aldehyde solutions were prepared as follows: 100 μl of aldehyde was diluted in 900 μl of ethanol. 10 μl of this 10% solution was then diluted into 990 μl of sterile phosphate buffered saline (PBS) pH 7.4 to give a 0.1% final volume of aldehyde solution. The animals were observed over a 24-hour period.
compound,measurement,value
CCCCCCCCCC=O [n-decyl aldehyde],symptoms of illness or abnormal behavior,None of the mice showed any apparent symptoms of illness or abnormal behavior
